Measurements: PubChem BioAssay (NCI)
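Values below derive from 48-hour exposures of cells grown in 96-well plates, with endpoints linearly interpolated between the two concentrations bracketing the appropriate inhibition level. TGI: total growth inhibition.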

Assays:
Assay in all cases: NCI-60 cell line screen, 48 h
K-562 leukemia = system: K-562 leukemia
SK-MEL-2 melanoma = system: SK-MEL-2 melanoma
EKVX NSCLC = system: EKVX NSCLC
UO-31 renal = system: UO-31 renal
HL-60(TB) leukemia = system: HL-60(TB) leukemia
M14 melanoma = system: M14 melanoma
HCT-116 colon = system: HCT-116 colon
MOLT-4 leukemia = system: MOLT-4 leukemia
SW-620 colon = system: SW-620 colon
OVCAR-5 ovarian = system: OVCAR-5 ovarian
UACC-257 melanoma = system: UACC-257 melanoma
TK-10 renal = system: TK-10 renal
DLD-1 colon = system: DLD-1 colon
HCC-2998 colon = system: HCC-2998 colon
KM20L2 colon = system: KM20L2 colon
ACHN renal = system: ACHN renal
CCRF-CEM leukemia = system: CCRF-CEM leukemia
U251 CNS = system: U251 CNS
UACC-62 melanoma = system: UACC-62 melanoma
RXF-631 renal = system: RXF-631 renal
LXFL 529 NSCLC = system: LXFL 529 NSCLC
HOP-92 NSCLC = system: HOP-92 NSCLC
SF-295 CNS = system: SF-295 CNS
SK-MEL-28 melanoma = system: SK-MEL-28 melanoma
SNB-19 CNS = system: SNB-19 CNS
SR leukemia = system: SR leukemia
M19-MEL melanoma = system: M19-MEL melanoma
NCI-H226 lung = system: NCI-H226 lung
DMS 114 small cell lung = system: DMS 114 small cell lung
NCI-H522 lung = system: NCI-H522 lung
RPMI-8226 leukemia = system: RPMI-8226 leukemia
SK-MEL-5 melanoma = system: SK-MEL-5 melanoma
XF 498 CNS = system: XF 498 CNS
LOX IMVI melanoma = system: LOX IMVI melanoma
SF-268 CNS = system: SF-268 CNS
NCI-H460 lung = system: NCI-H460 lung
HOP-62 NSCLC = system: HOP-62 NSCLC
HT29 colon = system: HT29 colon
SK-OV-3 ovarian = system: SK-OV-3 ovarian
COLO 205 colon = system: COLO 205 colon
KM12 colon = system: KM12 colon
SF-539 CNS = system: SF-539 CNS
NCI-H23 lung = system: NCI-H23 lung
OVCAR-3 ovarian = system: OVCAR-3 ovarian
786-0 renal = system: 786-0 renal
HOP-18 NSCLC = system: HOP-18 NSCLC
SNB-78 CNS = system: SNB-78 CNS
SNB-75 CNS = system: SNB-75 CNS
RXF 393 renal = system: RXF 393 renal
OVCAR-8 ovarian = system: OVCAR-8 ovarian
A549 NSCLC = system: A549 NSCLC
HCT-15 colon = system: HCT-15 colon
SN12C renal = system: SN12C renal
IGROV1 ovarian = system: IGROV1 ovarian
MALME-3M melanoma = system: MALME-3M melanoma
DMS 273 small cell lung = system: DMS 273 small cell lung

Measured: TGI

COc1cc2c(Cc3cc(OCc4ccccc4)ccc3N)nccc2c(OC)c1OC
> 10 µM: all assays above
